# Experimental data published in BindingDB's records for doi:10.1016/S0006-291X(02)00356-X (Katholieke Universiteit Leuven, 2002).
# Biological target: T1, Promotilin (Homo sapiens, UniProt P12872)
# T1 sequence (P12872 whole entry): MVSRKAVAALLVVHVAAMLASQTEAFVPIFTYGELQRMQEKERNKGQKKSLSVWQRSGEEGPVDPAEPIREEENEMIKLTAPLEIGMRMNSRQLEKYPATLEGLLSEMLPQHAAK
row,Compound,Ki
1,"CC[C@H]1OC(=O)[C@H](C)[C@@H](O[C@H]2C[C@@](C)(OC)[C@@H](O)[C@H](C)O2)[C@H](C)[C@@H](O[C@@H]2O[C@H](C)C[C@H](N(C)CC)[C@H]2O)[C@@]2(C)CC(C)=C(O2)[C@H](C)[C@@H](O)[C@]1(C)O [N-ethyl, N-methyl Erythromycin-A enol ether]",6.03 nM
2,"H-FVPIFTYAELQRLQ-NH2 [[ala8,leu13]pMOT(1-14)]",36.3 nM
3,"H-FVPIFTYGELQALQ-NH2 [[ala12,leu13]pMOT(1-14)]",6.31 nM
4,H-FVPIF-NH2 [[leu13]pMOT(1-5)],8910 nM
5,H-FVPIFTY-NH2 [[leu13]pMOT(1-7)],6920 nM
6,CC[C@H]1OC(=O)[C@H](C)[C@@H](O[C@H]2C[C@@](C)(OC)[C@@H](O)[C@H](C)O2)[C@H](C)[C@@H](O[C@@H]2O[C@H](C)C[C@H](N(C)C)[C@H]2O)[C@](C)(O)C[C@@H](C)C(=O)[C@H](C)[C@@H](O)[C@H]1C [Erythromycin-B],145 nM
7,"H-FVPIATYGELQRLQ-NH2 [[ala5,leu13]pMOT(1-14)]",28.8 nM
8,H-FVPIFTYGELQ-NH2 [[leu13]pMOT(1-11)],89.1 nM
9,CC[C@H]1OC(=O)[C@H](C)[C@@H](O[C@H]2C[C@@](C)(OC)[C@@H](O)[C@H](C)O2)[C@H](C)[C@@H](O[C@@H]2O[C@H](C)C[C@H](N(C)C)[C@H]2O)C2(C)CC(C)=C(O2)[C@H](C)[C@@H](O)[C@H]1C (some centres undefined) [Erythromycin-B enol ether],7.59 nM
10,H-FVPIFTYGE-NH2 [[leu13]pMOT(1-9)],4070 nM
11,CC[C@H]1OC(=O)[C@H](C)[C@@H](O[C@H]2C[C@@](C)(OC)[C@@H](O)[C@H](C)O2)[C@H](C)[C@@H](O[C@@H]2O[C@H](C)C[C@H](N(C)C)[C@H]2O)[C@@]2(C)CC(C)=C(O2)[C@H](C)[C@@H](O)[C@]1(C)O [Erythromycin-A enol ether],8.32 nM
12,"H-FVPIFTYGELARLQ-NH2 [[ala11,leu13]pMOT(1-14)]",4.57 nM
13,H-FVPIFTYGELQRLQEKERN-NH2 [[leu13]pMOT(1-19)],0.98 nM
14,"H-FVAIFTYGELQRLQ-NH2 [[ala3,leu13]pMOT(1-14)]",1.32 nM
15,"H-FVPIFTYGEAQRLQ-NH2 [[ala10,leu13]pMOT(1-14)]",5.01 nM
16,H-FVPIFTYGELQRLQEKERNKGQ-OH [[leu13]pMOT(1-22)],1 nM
17,"H-FVPIFTAGELQRLQ-NH2 [[ala7,leu13]pMOT(1-14)]",1450 nM
18,"H-FVPAFTYGELQRLQ-NH2 [[ala4,leu13]pMOT(1-14)]",2570 nM
19,CC[C@H](C)[C@H](NC(=O)[C@@H]1CCCN1C(=O)[C@@H](NC(=O)[C@@H](N)Cc1ccccc1)C(C)C)C(=O)N[C@@H](Cc1ccccc1)C(=O)N[C@H](C(=O)N[C@@H](Cc1ccc(O)cc1)C(=O)NCC(=O)N[C@@H](CCC(=O)O)C(=O)N[C@@H](CC(C)C)C(=O)N[C@@H](CCC(N)=O)C(=O)N[C@@H](CCCN=C(N)N)C(=O)N[C@@H](CC(C)C)C(=O)N[C@@H](CCC(N)=O)C(=O)N[C@@H](CCC(=O)O)C(=O)N[C@@H](CCCCN)C(N)=O)[C@@H](C)O [[leu13]pMOT(1-16)],2.14 nM
20,"H-FVPIFAYGELQRLQ-NH2 [[ala6,leu13]pMOT(1-14)]",46.8 nM
21,"H-FVPIFTYGALQRLQ-NH2 [[ala9,leu13]pMOT(1-14)]",75.9 nM
22,"H-FVPIFTYGELQRLA-NH2 [[ala14,leu13]pMOT(1-14)]",7.08 nM
23,"H-FVPIFTYGELQRAQ-NH2 [[ala13,leu13]pMOT(1-14)]",7.24 nM
24,"CC[C@H]1OC(=O)[C@H](C)[C@@H](O[C@H]2C[C@@](C)(OC)[C@@H](O)[C@H](C)O2)[C@H](C)[C@@H](O[C@@H]2O[C@H](C)C[C@H](N(C)CC)[C@H]2O)[C@](C)(O)C[C@@H](C)C(=O)[C@H](C)[C@@H](O)[C@]1(C)O [N-ethyl, N-Methyl Erythromycin-A]",240 nM
